Data reported in the supplement of paper PMC10307832.

Legend:
Test in all cases: relative viability (nuclei count vs DMSO), 5 days (fraction); higher = more cells survive
Carfilzomib + Tozasertib = compound: CC(C)C[C@H](NC(=O)[C@H](CCc1ccccc1)NC(=O)CN1CCOCC1)C(=O)N[C@@H](Cc1ccccc1)C(=O)N[C@@H](CC(C)C)C(=O)[C@@]1(C)CO1 [Carfilzomib] + Cc1cc(Nc2cc(N3CCN(C)CC3)nc(Sc3ccc(NC(=O)C4CC4)cc3)n2)n[nH]1 [Tozasertib] (partner 0.1 µM)
Procedure, shortened: (§1)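 Relative viability divides the nuclei count in treated wells by that in vehicle wells. Lung cancer cell lines were seeded in 1536-well plates, dosed by pin tool the next day, and fixed and stained after 5 days in one step with final 0.05% Triton X-100, 1% formaldehyde and 1 ug/ml Hoechst. Dosing was a single drug or a fixed anchor-drug dose plus five library-drug doses (not always all listed) in √10 steps, and values are medians of duplicate plates imaged at 4×.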

Crizotinib + Trametinib = compound: C[C@@H](Oc1cc(-c2cnn(C3CCNCC3)c2)cnc1N)c1c(Cl)ccc(F)c1Cl [Crizotinib] + CC(=O)Nc1cccc(-n2c(=O)n(C3CC3)c(=O)c3c(Nc4ccc(I)cc4F)n(C)c(=O)c(C)c32)c1 [Trametinib] (partner 0.02 µM)
Procedure, shortened: as §1

Olaparib + OSI-027 = compound: O=C(c1cc(Cc2n[nH]c(=O)c3ccccc23)ccc1F)N1CCN(C(=O)C2CC2)CC1 [Olaparib] + COc1cccc2cc(-c3nc([C@H]4CC[C@H](C(=O)O)CC4)n4ncnc(N)c34)[nH]c12 [OSI-027] (partner 0.5 µM)
Procedure, shortened: as §1

Olaparib + Dasatinib = compound: O=C(c1cc(Cc2n[nH]c(=O)c3ccccc23)ccc1F)N1CCN(C(=O)C2CC2)CC1 [Olaparib] + Cc1nc(Nc2ncc(C(=O)Nc3c(C)cccc3Cl)s2)cc(N2CCN(CCO)CC2)n1 [Dasatinib] (partner 0.075 µM)
Procedure, shortened: as §1

Row | Cell Line | relative viability (Carfilzomib + Tozasertib; first compound 0.001 µM) | relative viability (Carfilzomib + Tozasertib; first compound 0.003162 µM) | relative viability (Carfilzomib + Tozasertib; first compound 0.01 µM) | relative viability (Carfilzomib + Tozasertib; first compound 0.03162 µM) | relative viability (Carfilzomib + Tozasertib; first compound 0.1 µM) | relative viability (Crizotinib + Trametinib; first compound 0.01 µM) | relative viability (Crizotinib + Trametinib; first compound 0.03162 µM) | relative viability (Crizotinib + Trametinib; first compound 0.1 µM) | relative viability (Crizotinib + Trametinib; first compound 0.3162 µM) | relative viability (Crizotinib + Trametinib; first compound 1 µM) | relative viability (Olaparib + OSI-027; first compound 0.08 µM) | relative viability (Olaparib + OSI-027; first compound 0.253 µM) | relative viability (Olaparib + OSI-027; first compound 2.53 µM) | relative viability (Olaparib + OSI-027; first compound 8 µM) | relative viability (Olaparib + Dasatinib; first compound 0.08 µM) | relative viability (Olaparib + Dasatinib; first compound 0.253 µM) | relative viability (Olaparib + Dasatinib; first compound 2.53 µM) | relative viability (Olaparib + Dasatinib; first compound 8 µM)
1 | NCI-H596 | 1.16 | 0.878 | 0.721 | 0.222 | 0.168 | 0.834 | 0.845 | 0.82 | 0.888 | 0.819 | 0.718 | 0.782 | 0.718 | 0.642 | 0.597 | 0.68 | 0.583 | 0.454
2 | NCI-H647 | 0.452 | 0.378 | 0.171 | 0.141 | 0.0292 | 0.43 | 0.575 | 0.435 | 0.436 | 0.559 | 0.701 | 0.596 | 0.688 | 0.482 | 0.249 | 0.181 | 0.189 | 0.175
3 | NCI-H650 | – | 0.9 | 0.745 | 0.588 | 0.157 | 0.955 | 1.04 | – | – | – | 0.631 | 0.498 | 0.5 | 0.414 | 0.478 | 0.428 | 0.424 | 0.372
4 | NCI-H661 | 0.367 | 0.313 | 0.364 | 0.373 | 0.255 | 0.536 | 0.563 | 0.536 | 0.61 | 0.549 | 0.7 | 0.61 | 0.708 | 0.621 | 0.801 | 0.769 | 0.7 | 0.715
5 | NCI-H727 | 0.708 | 0.754 | 0.602 | 0.438 | 0.378 | 0.356 | 0.427 | 0.344 | 0.434 | 0.381 | 0.91 | 0.619 | 0.546 | 0.471 | 0.439 | 0.405 | 0.469 | 0.324
6 | NCI-H838 | 0.273 | 0.276 | 0.298 | 0.31 | 0.116 | 0.474 | 0.513 | 0.576 | 0.515 | 0.498 | 0.417 | 0.367 | 0.38 | 0.405 | 0.303 | 0.259 | 0.272 | 0.256
7 | NCI-H1355 | 0.537 | 0.647 | 0.569 | 0.371 | 0.192 | 0.416 | 0.409 | 0.45 | 0.396 | 0.404 | 0.517 | 0.399 | 0.441 | 0.412 | 0.759 | 0.731 | 0.724 | 0.703
8 | NCI-H1395 | 0.746 | 0.743 | 0.696 | 0.505 | 0.304 | 0.951 | 1.05 | 1.04 | 0.971 | 1.1 | 0.743 | 0.58 | 0.524 | 0.536 | 0.465 | 0.358 | 0.39 | 0.419
9 | NCI-H1437 | 0.403 | 0.424 | 0.4 | 0.433 | 0.252 | 0.542 | 0.577 | 0.544 | 0.457 | 0.608 | 0.967 | 0.871 | 0.855 | 0.771 | 0.548 | 0.399 | 0.441 | 0.39
10 | NCI-H1650 | 0.42 | 0.392 | 0.255 | 0.139 | 0.204 | 0.548 | 0.605 | 0.607 | 0.559 | 0.58 | 0.842 | 0.515 | 0.72 | 0.816 | 0.313 | 0.342 | 0.287 | 0.285
11 | NCI-H1651 | 0.626 | 0.805 | 0.559 | 0.126 | 0.0943 | 0.802 | 0.832 | 0.822 | 0.792 | 0.803 | 0.756 | 0.615 | 0.545 | 0.445 | 0.423 | 0.311 | 0.31 | 0.218
12 | NCI-H1666 | 0.667 | 0.551 | 0.58 | 0.523 | 0.312 | 0.838 | 0.865 | 0.866 | – | 0.902 | 0.845 | 0.791 | 0.717 | 0.758 | 0.883 | 0.68 | 0.693 | 0.651
13 | NCI-H1734 | 0.275 | 0.289 | 0.266 | 0.153 | 0.0994 | 0.684 | 0.621 | 0.629 | – | 0.67 | 0.662 | 0.516 | 0.486 | 0.374 | 0.458 | 0.399 | 0.421 | 0.326
14 | NCI-H1755 | 0.612 | 0.505 | 0.571 | 0.609 | 0.269 | 0.776 | 0.744 | 0.85 | 0.756 | 0.742 | 0.803 | 0.64 | 0.647 | 0.638 | 0.477 | 0.399 | 0.44 | 0.404
15 | NCI-H1915 | 0.422 | 0.458 | 0.465 | 0.229 | 0.0764 | 0.286 | 0.31 | 0.32 | 0.293 | 0.313 | 0.612 | 0.572 | 0.533 | 0.374 | 0.315 | 0.294 | 0.28 | 0.252
16 | NCI-H1944 | 0.248 | 0.236 | 0.253 | 0.265 | 0.16 | 0.408 | 0.426 | 0.428 | 0.372 | 0.417 | 0.404 | 0.362 | 0.369 | 0.374 | 0.177 | 0.215 | 0.178 | 0.149
17 | NCI-H1975 | – | 0.766 | 0.371 | 0.0617 | 0.0846 | 0.338 | 0.326 | 0.363 | 0.373 | 0.402 | 0.761 | 0.703 | 0.848 | 0.758 | 0.396 | 0.346 | 0.381 | 0.364
18 | NCI-H1993 | 0.563 | 0.571 | 0.59 | 0.597 | 0.423 | 0.631 | 0.454 | 0.506 | 1.07 | 0.46 | 0.585 | 0.502 | 0.389 | 0.527 | 0.725 | 0.556 | 0.656 | 0.716
19 | NCI-H2009 | 0.781 | 0.871 | 0.723 | 0.748 | 0.0938 | 0.268 | 0.277 | 0.26 | 0.217 | 0.301 | 0.739 | 0.601 | 0.645 | 0.458 | 0.42 | 0.279 | 0.304 | 0.272
20 | NCI-H2023 | 0.433 | 0.399 | 0.352 | 0.285 | 0.0853 | 0.487 | 0.489 | 0.484 | 0.343 | 0.468 | 0.445 | 0.356 | 0.406 | 0.276 | 0.672 | 0.489 | 0.528 | 0.467
21 | NCI-H2085 | 0.825 | 0.828 | 0.786 | 0.269 | 0.385 | 0.515 | 0.485 | 0.691 | 0.479 | 0.529 | 1.15 | 0.687 | 0.698 | 0.751 | 0.292 | 0.225 | 0.241 | 0.226
22 | NCI-H2087 | 0.264 | 0.236 | 0.239 | 0.0397 | 0.0474 | 0.145 | 0.206 | 0.214 | 0.23 | 0.172 | 0.794 | 0.489 | 0.501 | 0.49 | 1.27 | 0.621 | 0.804 | 0.617
23 | NCI-H2126 | 0.904 | 0.926 | 0.936 | 0.777 | 0.408 | 0.511 | 0.539 | 0.557 | 0.55 | 0.591 | 0.766 | 0.669 | 0.794 | 0.639 | 0.728 | 0.634 | 0.558 | 0.606
24 | NCI-H2170 | 0.751 | 0.73 | 0.749 | 0.659 | 0.173 | 0.859 | 0.993 | 0.869 | 0.928 | 0.909 | 0.809 | 0.685 | 0.679 | 0.694 | 0.471 | 0.629 | 0.47 | 0.638
25 | NCI-H2228 | 0.3 | 0.27 | 0.289 | 0.096 | 0.103 | 0.415 | 0.492 | 0.648 | 0.3 | 0.521 | 0.644 | 0.386 | 0.598 | 0.509 | 0.587 | 0.495 | 0.458 | 0.304
26 | NCI-H2342 | 0.495 | 0.473 | 0.579 | 0.543 | 0.385 | 0.818 | 0.896 | 0.78 | 0.868 | 0.829 | 0.565 | 0.54 | 0.55 | 0.564 | 0.293 | 0.262 | 0.312 | 0.293
27 | NCI-H2347 | 0.54 | – | 0.619 | 0.493 | 0.151 | 0.265 | 0.274 | 0.292 | 0.321 | 0.272 | 0.472 | 0.371 | 0.344 | 0.37 | 0.335 | 0.292 | 0.293 | 0.294
28 | NCI-H2405 | – | 0.814 | 0.828 | 0.757 | 0.267 | 0.537 | 0.636 | 0.657 | 0.619 | 0.711 | 0.717 | 0.625 | 0.636 | 0.583 | 0.192 | 0.181 | 0.204 | 0.217
29 | NCI-H3122 | 0.371 | 0.428 | 0.418 | 0.38 | 0.132 | 0.207 | 0.219 | 0.197 | 0.21 | 0.238 | 1.14 | 0.954 | 1.01 | 0.814 | 0.463 | 0.823 | 0.873 | 0.696
30 | PC-3 [JPC-3] | 0.859 | 0.926 | 0.901 | 0.866 | 0.374 | 0.634 | 0.721 | 0.759 | – | 0.651 | 0.825 | 0.711 | 0.824 | 0.747 | 1.08 | 0.902 | 1.01 | 0.895
